This note sets out measurements from patent US8674096B2, “Substituted imidazo[1,5-a]quinoxalin-4-ones as phosphodiesterase 9 inhibitors” (priority 2009, dated 2014).

Structures are written as SMILES.

As to `CN1CCN(C(=O)c2ccc3c(c2)[nH]c(=O)c2nnc(-c4ccc(O)cc4)n23)CC1c1ccccc1` (stereo not drawn), the melting point (in general, the temperature, or range, at which the solid turns liquid) is 286 °C (dec.).
The value for `Cc1cc2c(cc1C(=O)N1Cc3cccc(N4CCOCC4)c3C1)[nH]c(=O)c1cnc(C3CCOCC3)n12.Cl` was 225 °C (dec.); that for `Cc1cc2c(cc1C(=O)N1CCc3cc(Br)ccc31)[nH]c(=O)c1cnc(C3CCOCC3)n12.Cl` was 219 to 220 °C (dec.); that for `O=C(c1ccc2c(c1)[nH]c(=O)c1nnc(C3CCOCC3)n12)N1CCOC(c2ccccc2)C1` (stereo not drawn) was 275 to 276 °C.
The figure for `Cc1cc2c(cc1C(=O)N1CCc3c(Cl)cccc3C1)[nH]c(=O)c1cnc(C3CCOCC3)n12` is 267 °C (dec.); for `Cc1cc2c(cc1C(=O)N1CCc3cc(Cl)ccc31)[nH]c(=O)c1nnc(C3CCCC3)n12.Cl` it is 218 to 220 °C.
Consider `Cc1cc2c(cc1C(=O)N1CCc3cccnc31)[nH]c(=O)c1nnc(C3CCCC3)n12`, for which the melting point was in the range of 207 to 209 °C.
The value for `Cc1cc2c(cc1C(=O)N1Cc3ccccc3C1)[nH]c(=O)c1nnc(C3CCOC(C)(C)C3)n12` (stereo not drawn) was 287 °C (dec.); that for `Cc1cc2c(cc1C(=O)N1CCc3cc(Cl)ccc31)[nH]c(=O)c1nnc(C3CCOCC3)n12` was 335 to 336 °C; that for `Cc1cc2c(cc1C(=O)N1CCc3cccnc31)[nH]c(=O)c1nnc(C3CCOCC3)n12` was 370 °C (dec.).
The figure for `Cc1cc2c(cc1C(=O)N1Cc3ccccc3C1)[nH]c(=O)c1c(C)nc(C3CCOCC3)n12.Cl` is 335 °C (dec.).
`O=C(c1cc2[nH]c(=O)c3cnc(C4CCOCC4)n3c2cc1C1CC1)N1CCc2cc(C3CC3)cnc21`: the melting point is 310 °C (dec.).
The value for `Cc1cc2c(cc1C(=O)N1CCc3ccccc3CC1)[nH]c(=O)c1nnc(C3CCOCC3)n12.Cl` was 212 to 215 °C.
The figure for `O=C(c1ccc2c(c1)[nH]c(=O)c1nnc(C3CCOCC3)n12)N1CCc2c(Cl)cccc2C1` is 318 °C (dec.); for `Cc1cc2c(cc1C(=O)N1CCc3c(cc(-c4ccccc4)n3C)C1)[nH]c(=O)c1nnc(C3CCOCC3)n12` it is 223 to 225 °C; for `CCCc1nnc2c(=O)[nH]c3cc(C(=O)N4CCc5c(Cl)cccc5C4)ccc3n12` it is 293 to 295 °C.
The value for `Cc1cc2c(cc1C(=O)N1CCc3cc(Cl)cnc31)[nH]c(=O)c1cnc(C3CCOCC3)n12.Cl` was 297 °C (dec.); that for `Cc1cc2c(cc1C(=O)N1CCc3cccnc31)[nH]c(=O)c1nnc(C3CCOC3)n12.Cl` (stereo not drawn) was 210 to 211 °C (dec.); that for `Cc1cc2c(cc1C(=O)N1CCc3cc(F)ccc31)[nH]c(=O)c1cnc([C@H]3CC[C@@H](O)CC3)n12.Cl` was 200 to 202 °C.
As to `Cc1cc2c(cc1C(=O)N1Cc3ccc(F)cc3C1)[nH]c(=O)c1cnc(C3CCOCC3)n12.Cl`, the melting point lay within 200 to 203 °C.
The figure for `COCc1cc2c(cc1C(=O)N1Cc3c(F)ccc(F)c3C1)[nH]c(=O)c1cnc(C3CCOCC3)n12.Cl` is 172 to 174 °C; for `Cc1cc2c(cc1C(=O)N1CCc3cc(F)ccc31)[nH]c(=O)c1nnc(C3CC(F)(F)C3)n12` it is 234 to 235 °C; for `Cc1cc2c(cc1C(=O)N1CCc3cc(Cl)ccc31)[nH]c(=O)c1nnc(-c3ccccc3)n12` it is 248 to 249 °C.
The value for `Cc1cc2c(cc1C(=O)N1CCc3cc(Cl)ccc31)[nH]c(=O)c1nnc([C@H]3CC[C@H](O)CC3)n12.Cl` was 235 to 237 °C.
Regarding `COc1cc2c(cn1)N(C(=O)c1cc3[nH]c(=O)c4nnc(C5CCOCC5)n4c3cc1C)CC2`, the melting point was 271 °C (dec.).
The figure for `COc1cc2c(cc1C(=O)N1Cc3ccccc3C1)[nH]c(=O)c1cnc(C3CCCCC3)n12.Cl` is 299 to 303 °C.
The figure for `Cc1cc2c(cc1C(=O)N1CCc3c(Cl)cccc3C1)[nH]c(=O)c1cnc(C3CCCC3)n12` is 297 to 299 °C.
